Measured values reported in paper PMC5435687 (Scientific Reports, 2017).
“Also recorded” adds a separate entry of the source. Where a name gives a salt, the structure may show the parent alone.

Key:
[1] = Stability of CPZ in aqueous solution; type: physicochemical; details: aqueous solution / cell culture medium
[2] = tested on: SH-SY5Y cells; assay: Transferrin (Trf) uptake under pharmacological endocytosis inhibitors (control for clathrin-mediated endocytosis); type: cell-based, human; details: for effect of inhibitor on Trf uptake: 10 µM cytochalasin A, 25 µg/ml cytochalasin D, 10 µM IPA-3 or 25 nM wortmannin, Trf 5 µg/ml 5 min
Experimental: (§1) Flow cytometry was used to quantify cellular uptake. The samples were washed in serum free medium (1x for experiments including only Aβ and 3x for experiments with Trf) prior to incubation with Aβ peptides and/or other reagents in serum free medium supplemented with 30 mM HEPES and 2% B-27. For experiments including Trf B-27 was omitted, as outlined above. Prior to analysis, the cells were washed 1x (for experiments including only Aβ) or 3x (for experiments including Aβ and dextran 10 kDa or Trf) in serum free medium, detached by trypsin-EDTA for 10 min followed by addition of FBS-supplemented cell culture medium to inhibit further proteolytic degradation. All samples were kept on ice until they were analysed on a Guava EasyCyte 8HT (Millipore, Darmstadt, Germany) that automatically retrieves samples from a 96-well plate. In order to exclude effects due to difference in delay time we used mixed order of analysis, loading only a few samples at a time with the remaining samples kept on ice. The cell counting gate was determined using propidium iodide (0.5 µM, not washed away prior to analysis) and calcein-AM (10 nM, 15 min staining) to distinguish live and dead cells, and for each sample 5,000 cells from within the live gate were counted and analysed. HF488, AlexaFluor488, EGFP and calcein-AM were excited by a 488 nm laser and their fluorescence was detected through a 525/30 nm filter. Propidium iodide and mRFP were excited by the 488 nm laser but detected through a 692/46 nm filter. HF647 and AlexaFluor647 were excited with a 635 nm laser and detected through a 661/19 nm filter. Compensation was performed to adjust for bleed through in experiments including mRFP. Mean cellular uptake was estimated as the average fluorescence intensity of all cells gated within the live region and all individual experiments were performed with three technical replicates (n = 3) unless else is stated. The average fluorescence intensity was baseline corrected by subtracting the signal for unstained cells.
Endocytic mechanisms were also perturbed by treatment of cells with pharmacological inhibitors. Stock solutions of cytochalasin A, cytochalasin D, dynasore, wortmannin and IPA-3 were prepared in DMSO and diluted in serum-free cell culture media supplemented with 30 mM HEPES on the day of the experiment. The final DMSO concentration added to the cells was kept <0.1% and matched for the control. Prior to addition of Aβ peptide the cells were always washed in serum-free medium followed by pre-incubation for 30 min with either of the inhibitors diluted in serum-free medium with the addition of 30 mM HEPES. 1 µM Aβ was thereafter added and the cells were incubated for a total of 1 h, in presence of the respective inhibitors. The cells were centrifuged 1000 * g for 5 min at 4 °C, washed 3x with ice-cold serum-free medium, followed by detachment and immediate flow cytometry analysis, as detailed above. […] However, under exposure conditions where at least 75% if the inhibitor-treated cells were found in the live gate (see Supplementary Fig. S5) we observed reductions in Aβ uptake. Only the live cells were included in the analysis. Trf was used as a positive control for clathrin-mediated endocytosis. Due to the rapid uptake and recycling of internalized Trf we adopted an optimized protocol with sufficiently short Trf incubation times. First, to remove the quantities of membrane-bound Trf that originate from the serum component of the complete culture medium the cells were washed 3x in serum-free medium. The cells were then subjected to the inhibitors as described above and thereafter exposed to a 5 min pulse of 5 µg/ml Trf. To remove externally bound fluorescently labelled Trf the cells were thereafter washed (3x/2 min) in ice-cold acidic buffer (0.1 M Glycine-HCl buffer pH 2.5 with 150 mM NaCl)[35] whilst kept on ice. […]

[3] = tested on: SH-SY5Y cells; assay: Cell viability by flow cytometry FSC/SSC live/dead gating; type: cell-based; details: for fraction of inhibitor-treated cells in the live gate: 90 min exposure at the concentrations used (10 µM cytochalasin A, 25 µg/ml cytochalasin D, 10 µM IPA-3, 25 nM wortmannin, 5 µg/ml CPZ, 80 µM dynasore), FSC/SSC gating
Experimental: Flow cytometry was used to quantify cellular uptake. […] For experiments including Trf B-27 was omitted, as outlined above. […] All samples were kept on ice until they were analysed on a Guava EasyCyte 8HT (Millipore, Darmstadt, Germany) that automatically retrieves samples from a 96-well plate. In order to exclude effects due to difference in delay time we used mixed order of analysis, loading only a few samples at a time with the remaining samples kept on ice. The cell counting gate was determined using propidium iodide (0.5 µM, not washed away prior to analysis) and calcein-AM (10 nM, 15 min staining) to distinguish live and dead cells, and for each sample 5,000 cells from within the live gate were counted and analysed. […] Compensation was performed to adjust for bleed through in experiments including mRFP. Mean cellular uptake was estimated as the average fluorescence intensity of all cells gated within the live region and all individual experiments were performed with three technical replicates (n = 3) unless else is stated. The average fluorescence intensity was baseline corrected by subtracting the signal for unstained cells.
(1 picture or pasted object on this page, not shown here)

[4] = tested on: SH-SY5Y cells transfected with dyn2 K44A; assay: Uptake in cells transfected with dominant negative dynamin2 K44A; type: cell-based, human; details: SH-SY5Y 24 h post transfection; HF647-labelled Aβ 1 µM 1 h or AF647-Trf 5 µg/ml 5 min; gated low/medium/high EGFP; N = 2, n = 3–5
Experimental: as §1, with “In order to exclude effects due to difference in delay time we used mixed order of analysis, loading only a few samples at a time with the remaining samples kept on ice.” left out, “HF647 and AlexaFluor647 were excited with a 635 nm laser and detected through a 661/19 nm filter. Compensation was performed to adjust for bleed through in experiments including mRFP. Mean cellular uptake was estimated as the average fluorescence intensity of all cells gated within the live region and all individual experiments were performed with three technical replicates (n = 3) unless else is stated. The average fluorescence intensity was baseline corrected by subtracting the signal for unstained cells.” left out

[5] = tested on: SH-SY5Y cells transfected with AP180-C; assay: Uptake in cells overexpressing AP180-C; type: cell-based, human; details: SH-SY5Y 24 h post transfection; HF488-labelled Aβ 1 µM 1 h or AF647-Trf 5 µg/ml 5 min; low and high mRFP gates; N = 2, n = 2–4
Experimental: as §1, with “cells. […]” for “cells.”

Molecule | effect of inhibitor on Trf uptake ([2]; n = 3) | fraction of inhibitor-treated cells in the live gate [3] | other results
CN(C)CCCN1c2ccccc2Sc2ccc(Cl)cc21 [CPZ, chlorpromazine hydrochloride] |  |  | stability in solution [1]: rapidly degraded in aqueous solutions; also recorded: rapid degradation in solution; inhibition at 5 µg/mL ([2]; Homo sapiens, 5 µg/ml CPZ, Trf 5 µg/ml 5 min pulse at end of 1 h Aβ incubation, n = 3): ~30%
CCN(c1nc(N)c(C(=O)NC(=N)N)nc1Cl)C(C)C [EIPA] |  |  | specificity as macropinocytosis inhibitor ([2]; 25–200 µM): unspecific in SH-SY5Y cells regardless of the concentration used
Oc1ccc2ccccc2c1SSc1c(O)ccc2ccccc12 [IPA-3, 1,1′-Disulfanediyldinaphthalen-2-ol] | identical to that in the control | at least 90% | 
C=C1[C@@H](C)[C@H]2[C@H](Cc3ccccc3)NC(=O)[C@]23OC(=O)/C=C/C(=O)CCC[C@@H](C)C/C=C/[C@H]3[C@@H]1O [cytochalasin A] | reduced the uptake of Trf | > 85% | 
C=C1[C@@H](C)[C@H]2[C@H](Cc3ccccc3)NC(=O)[C@]23[C@H](OC(C)=O)/C=C/[C@@](C)(O)C(=O)[C@@H](C)C/C=C/[C@H]3[C@@H]1O [cytochalasin D] | reduced the uptake of Trf | > 85% | 
O=C(N/N=C/c1ccc(O)c(O)c1)c1cc2ccccc2cc1O [dynasore] |  |  | inhibition at 80 µM ([2]; Homo sapiens, 5 min, 80 µM dynasore, 5 µg/ml AF647-Trf 5 min pulse, range over 4 independent experiments): 30 to 65%
COC[C@H]1OC(=O)c2coc3c2[C@@]1(C)C1=C(C3=O)[C@@H]2CCC(=O)[C@@]2(C)C[C@H]1OC(C)=O [wortmannin] | identical to that in the control | at least 90% | 
Transferrin [Trf] |  |  | uptake in dyn2 K44A transfected cells relative to non-transfected cells [4]: inhibited in proportion to the degree of dyn2 K44A expression; uptake in AP180-C transfected cells compared to non-transfected cells [5]: systematically decreased with the degree of AP180-C overexpression
methyl-β-cyclodextrin |  |  | cytotoxicity during cholesterol depletion [3]: high levels of cytotoxicity
